Measured values taken from patent publication US20050214738A1, “Conditional allele system” (priority 2003, published 2005).
Values joined by “and” are separate entries in the source; they are usually repeats but may differ in a detail not shown here. Equal values may be shown once.

Legend:
[1] = biological target: T1, FRB (Homo sapiens, UniProt P42345+P62942); assay: SeAP reporter assay, dimerization of FRB-VP16 to FKBP3-GAL4DBD in COS-1 cells; type: cell-based
T1 construct: The minimal FRB domain comprises amino acids 2025-2114 of human mTor; expressed in transfected cells; host or cells: COS-1 cells, electroporated with pBJ5-FRBVP, pBJ5-GF3E and pG5IL2SX
T1 sequence (P42345 2025-2114): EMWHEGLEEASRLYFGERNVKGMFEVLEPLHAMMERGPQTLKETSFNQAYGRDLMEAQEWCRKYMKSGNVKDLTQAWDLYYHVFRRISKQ
T1 sequence (P62942 whole entry, the tested form may be a part): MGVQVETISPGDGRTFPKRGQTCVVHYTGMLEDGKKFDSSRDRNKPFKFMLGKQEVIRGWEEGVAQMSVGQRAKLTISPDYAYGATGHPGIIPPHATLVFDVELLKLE
Text: Transcription activation by recruitment of chimeric transcriptional activation and DNA binding domains is described. COS-1 cells were electroporated with […] each of the following expression plasmids (Ho, S. N., Biggar, S. R., Spencer, D. M., Schreiber, S. L., and Crabtree, G. R. “Dimeric ligands define a role for transcriptional activation domains in reinitiation.” (1996) Nature 382, 822-826): pG5IL2SX (drives transcription of bacterial secreted alkaline phosphatase (SeAP) through GAL4 DNA binding […] elements), pBJ5-GF3E (which expresses the GAL4 DNA binding domain fused to three copies of human FKBP12), and pBJ5-FRBVP. (which expresses a FRB fusion with the Herpes Simplex Virus VP16 Activation domain) A FRB*-VP16 fusion protein which consists of modified FRB protein fused to the VP16 activation domain was also used selectively. Transfected cells were distributed equally to 96 well plates and were incubated at 37° C. for 24 to 36 hours before media was supplemented with drug in a dilution curve in which each point is represented in quadruplicate. Cells were incubated at 37° C. for an additional 24 hours followed by a 2-hour treatment at 65° C. to inactivate endogenous phosphatases. Each well was supplemented with 100μL of 1 mM methylumbelliferylphosphate dissolved in 2 M diethanolamine buffered to pH 10.0 with carbonate and incubated at 37° C. for 16 hours. Fluorescence was measured with a Fluoroscan (ICN) plate reader at 355 nm transmission and 455 nm emission using Deltasoft software.
Drug efficacy was determined in a three-plasmid transcriptional switch reporter assay. ˜106 COS1 cells were coelectroporated with 2 μg of the DNA binding construct pBJ5-Gal4-FKBP(3), 2 μg pBJ5-VP16 (or the relevant mutant FRB) and 2 μg of the Gal4-SeAP reporter. Electroporation details are available upon request. […] SeAP activity was measured by fluorescence with a Spectamax M2 fluorometer (Molecular Devices, Sunnyvale, Calif.) with transmission set at 355 nm and emmission set at 460 nm. Data was analysed with Softmax Pro (Molecular Devices), Microsoft Excel and Prism 3 (GraphPad Software).

[2] = biological target: T2, KLF (Homo sapiens, UniProt P42345+P62942, T2098L/W2101F); assay: SeAP transcriptional switch assay, FRB mutant KLF; type: cell-based; details: double mutant
T2 construct: The minimal FRB domain comprises amino acids 2025-2114 of human mTor; expressed in transfected cells; host or cells: COS1 cells
T2 sequence (P42345 2025-2114 T2098L/W2101F): as the sequence (P42345 2025-2114) above, with T74L, W77F counted along it
T2 sequence (P62942 whole entry, the tested form may be a part): as the sequence (P62942 whole entry, the tested form may be a part) above
Method: Drug efficacy was determined in a three-plasmid transcriptional switch reporter assay. ˜106 COS1 cells were coelectroporated with 2 μg of the DNA binding construct pBJ5-Gal4-FKBP(3), 2 μg pBJ5-VP16 (or the relevant mutant FRB) and 2 μg of the Gal4-SeAP reporter. Electroporation details are available upon request. Cells were immediately aliquoted to 2 or 3×96 well plates with flat bottoms. After 24 hours incubation media was supplemented with a rapalog in triplicate and in serial two fold dilutions. Following 24 hours further incubation, cells with media were wrapped carefully in plastic wrap and heated to 65° C. for two hours to inactivate endogenous phosphatases. 50 μL of media was transferred to a black 96 well plate (Costar 3915) and supplemented with 1 mM methylumbelliferrylphosphate (Sigma, St. Louis, Mo.) in 1M diethanolamine (pH 10.0 with carbonate). After 16 hours incubation at 37° C. SeAP activity was measured by fluorescence with a Spectamax M2 fluorometer (Molecular Devices, Sunnyvale, Calif.) with transmission set at 355 nm and emmission set at 460 nm. Data was analysed with Softmax Pro (Molecular Devices), Microsoft Excel and Prism 3 (GraphPad Software).

[3] = biological target: T3, FKBP-GSK3β-GFP (Homo sapiens, UniProt P62942); assay: Sub-cellular localization of FKBP-GSK3β-GFP with FRB(TLW)-NES and FRB(KTF)-NLS in COS1 cells; type: cell-based; details: 10 nM, 1 hour
T3 construct: expressed in transfected cells; host or cells: COS1 cells
T3 sequence (P62942 whole entry): as the sequence (P62942 whole entry, the tested form may be a part) above
Method: COS1 cells were electroporated with 1 μg pS-FKBP-GSK3β-GFP, 1 μg of the ‘exporter’ pBJ5-FRB(TLW)-Exp-HA containing a nuclear export sequence derived from the rev protein of Human Immunodeficiency Virus and 3 μg of the ‘importer’ pBJ5-FRB(KTF)-Imp with a nuclear localization sequence from SV40 Large T antigen. Cells were plated on autoclaved coverslips and incubated 36 hours followed by 1 hour of rapalog treatment (10 nM). Cells were fixed 10 minutes in 4% paraformaldeyde/PBS at 4° C. and mounted for microscopy with DAPI to visualize the nucleus. Microscopy was perfomed with a Leica confocal microscope and Leica software.

[4] = biological target: GSK-3βFRB* (UniProt P26883+P42345, K2095P/T2098L/W2101F); assay: Stabilization of GSK-3βFRB* in embryos of injected pregnant mice; type: in vivo, mouse; set-up: The minimal FRB domain comprises amino acids 2025-2114 of human mTor; endogenous in cells; host or cells: MEFs from GSK-3β^FRB* knock-in mice (fusion expressed from the targeted endogenous locus); details: 200 mg/kg/day IP to mother, embryos harvested at E11.5
Chain of GSK-3βFRB* (P42345 2025-2114 K2095P/T2098L/W2101F): as the sequence (P42345 2025-2114) above, with K71P, T74L, W77F counted along it
Chain of GSK-3βFRB* (P26883 2-108): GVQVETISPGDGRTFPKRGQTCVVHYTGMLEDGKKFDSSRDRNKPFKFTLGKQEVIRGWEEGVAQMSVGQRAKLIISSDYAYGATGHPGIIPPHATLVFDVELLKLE
Method: GSK-3β^+/FRB* mice were intercrossed and the date of vaginal plug observation was set as E0.5. At E9.5, the stage of embryonic development was confirmed by ultrasonography (Chang, C. P. et al. “Sonographic Staging of the Developmental Status of Mouse Embryos in Utero.” (2003) Published in Genesis 36, 7-11) and mice were weighed. Drug administration commenced at E10.0. C20-MaRap was dissolved as a stock in N,N-dimethylacetamide (DMA) and was diluted into a delivery vehicle containing 10% Polyethylene glycol 400, 17% Polyoxyethylene sorbitan monooleate and 10% DMA to a final concentration of […]. 100 μL was immediately injected intraperitoneally (IP) to pregnant females with injections repeated twice more at 12 hour intervals to E11.5 when mice were sacrificed, and embryos and organs were dissected and frozen in […]. Tissues anterior to the embryonic forelimbs of individual embryos were used for preparation of protein extracts with the remainder used to determine the concentration of drug and for genotyping.

With “C20-(R or S)-methallylrapamycin [C20-MaRap]” the Kd ([1]; wild-type FRB) was > 200 nM, the EC50 ([1]; wild-type FRB(KTW)-VP16, ±95% confidence intervals) was 226 nM and > 200 nM and the EC50 [2] was 7.8 nM. For the same substance, the “sub-cellular localization of GSK3β” value [3] was “localization of GSK3β to the nucleus” and the “GSK-3βFRB* protein levels in embryos” value [4] was “partially restored”.
